Results taken from US11382956B2, “Amylin analogues” (Zealand Pharma A/S, priority 2016, dated 2022).
Numbered stars: 1 amine (or outer) side, 2 acyl side, 3 side chain; on linkers, the order of the positions; unused ones are H or OH. Bridge positions count the residues as written; N and C are the ends. Square brackets hold non-standard residues; d marks the D form. Peptide text beside a SMILES is read from it. * marks the point of attachment. C20 diacid = O=C(O)CCCCCCCCCCCCCCCCCCC(=O)*; γGlu = O=C(O)[C@H](CCC(=O)[*:2])N[*:1]; Hyp = O=C(O)[C@@H]1C[C@@H](O)CN1; NMeI = CC[C@H](C)[C@H](NC)C(=O)O; Aad = N[C@@H](CCCC(=O)O)C(=O)O; Orn = NCCC[C@H](N)C(=O)O; Dap = NC[C@H](N)C(=O)O; Sar = CNCC(=O)O

Columns and labels:
[1] = molecular target: T1, recombinant human calcitonin receptor (hCT-R) (Homo sapiens, UniProt P30988); assay: hCT-R cAMP assay (AlphaScreen) in 1321N1 cells; format: cell-based; settings: cAMP formation, 45 min stimulation
T1 construct: host or cells: human astrocytoma cell line 1321N1
T1 sequence (P30988 25-474): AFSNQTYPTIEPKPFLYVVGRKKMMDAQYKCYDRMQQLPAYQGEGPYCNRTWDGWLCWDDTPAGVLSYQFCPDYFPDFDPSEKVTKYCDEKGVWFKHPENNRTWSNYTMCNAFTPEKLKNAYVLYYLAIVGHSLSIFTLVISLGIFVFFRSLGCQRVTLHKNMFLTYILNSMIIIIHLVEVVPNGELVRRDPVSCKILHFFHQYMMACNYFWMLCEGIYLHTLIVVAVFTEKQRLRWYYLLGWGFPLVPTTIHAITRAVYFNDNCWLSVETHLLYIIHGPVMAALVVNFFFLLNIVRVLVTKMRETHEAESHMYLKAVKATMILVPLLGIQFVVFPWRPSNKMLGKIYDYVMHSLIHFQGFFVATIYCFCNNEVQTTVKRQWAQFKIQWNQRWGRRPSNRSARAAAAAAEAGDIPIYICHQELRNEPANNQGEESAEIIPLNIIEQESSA
Text: (§1) For the assessment of the in vitro activity of test peptides, cell lines expressing recombinant human calcitonin receptor (hCT-R) or recombinant human amylin 3 receptor (hAMYR3) in the background of the human astrocytoma cell line 1321N1 were purchased from DiscoveRx Corporation (Cat. No. 95-016106 and 95-0166C6). The hAMYR3 is a hetero-oligomer of the calcitonin receptor (Isoform 2; Gene ID 799) and RAMPS (Gene ID 10268) that forms when both genes are expressed in the same cell. The hCT-R cell line expresses only the recombinant human calcitonin receptor gene (Isoform 2; Gene ID 799). Upon activation of hCT-R or hAMYR3 by the test peptides the formation of cAMP is induced and was measured using the AlphaScreen® cAMP Assay kit from Perkin-Elmer (Cat. No. 6760635R).
(§2) Briefly, 1321N1 cells expressing hCT-R or hAMYR3 were seeded in 384-well microtiter plates (Falcon Optilux White, Cat.-No. 10448642) at 5,000 cells in […] growth medium per well (AssayComplete 1321N1 Cell Culture Kit, DiscoveRx Corp.), and incubated for 24 h at 37° C., 5% CO2. On the day of analysis growth medium was removed and the cells were stimulated by adding 10 μL of stimulation buffer (10 […], 0.1% BSA) containing increasing concentrations of test peptides, and incubation for 45 min at room temperature. The stimulation was stopped by adding 5.6 μL/well donor bead detection mix (5 mM Hepes pH7.4, 0.5% TWEEN 20, 0.1% BSA, 0.05 mg/mL donor beads, 62.5 nM biotinylated cAMP) and 4.5 μL/well acceptor bead solution (5 mM Hepes pH7.4, 0.5% TWEEN 20, 0.1% BSA, 0.05 mg/mL acceptor beads). After thorough mixing the plates were incubated in the dark for 1 h at room temperature and the cAMP content of the resulting cell lysates was estimated according to the AlphaScreen® cAMP Assay manufacturer's instructions. EC50 values were estimated by computer-aided curve fitting of results of at least 7 different compound concentrations.

[2] = molecular target: T2, recombinant human amylin 3 receptor (hAMYR3) (Homo sapiens, UniProt O60896+P30988); assay: hAMYR3 cAMP assay (AlphaScreen) in 1321N1 cells; format: cell-based; settings: cAMP formation, 45 min stimulation
T2 construct: host or cells: human astrocytoma cell line 1321N1
T2 sequence (P30988 25-474): T1 sequence (P30988 25-474)
T2 sequence (O60896 24-148 partner): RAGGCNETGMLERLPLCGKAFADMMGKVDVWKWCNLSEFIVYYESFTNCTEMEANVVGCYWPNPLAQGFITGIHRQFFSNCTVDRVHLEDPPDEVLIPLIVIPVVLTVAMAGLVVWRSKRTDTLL
Text: as §1, §2

Row | Compound | EC50 [1] | EC50 [2]
1 | CC[C@H](C)[C@@H](C(=O)N[C@@H](CC(C)C)C(=O)N[C@@H](CO)C(=O)N[C@@H](CO)C(=O)N[C@H](C(=O)N[C@@H](CCC(=O)O)C(=O)N[C@H](C(=O)NCC(=O)N[C@@H](CO)C(=O)N[C@@H](CC(N)=O)C(=O)N[C@H](C(=O)N1C[C@H](O)C[C@H]1C(N)=O)[C@@H](C)O)C(C)C)[C@@H](C)O)N(C)C(=O)[C@H](C)NC(=O)CN(C)C(=O)[C@H](Cc1ccccc1)NC(=O)[C@H](CO)NC(=O)[C@H](CO)NC(=O)[C@H](CCCNC(=N)N)NC(=O)[C@H](CCC(N)=O)NC(=O)[C@H](CC(C)C)NC(=O)[C@H](Cc1ccccc1)NC(=O)[C@H](Cc1c[nH]cn1)NC(=O)[C@H](C)NC(=O)[C@H](CC(C)C)NC(=O)[C@H](CCCNC(=N)N)NC(=O)[C@H](CCC(=O)O)NC(=O)[C@@H](NC(=O)[C@H](C)NC(=O)[C@@H]1CNC(=O)CCC[C@H](NC(=O)[C@H](CCCNC(=N)N)NC(=O)CC[C@H](NC(=O)CCCCCCCCCCCCCCCCCCC(=O)O)C(=O)O)C(=O)NCC(=O)N[C@@H]([C@@H](C)O)C(=O)N[C@@H](C)C(=O)N[C@@H]([C@@H](C)O)C(=O)N1)[C@@H](C)O [Compound 50, [19CD]-isoGlu-R-Aad()-GTAT-Dap()-ATERLAHFLQRSSF-Gly(Me)-A-Ile(Me)-LSSTEVGSNT-Hyp-NH2] ({C20 diacid-γGlu}-R[Aad]GTAT[Dap]ATERLAHFLQRSSF[Sar]A[NMeI]LSSTEVGSNT[Hyp]-NH2; lactam 2-7) | 3.3 nM | 1.5 nM
2 | CC[C@H](C)[C@@H](C(=O)N[C@@H](CC(C)C)C(=O)N[C@@H](CO)C(=O)N[C@@H](CO)C(=O)N[C@H](C(=O)N[C@@H](CCC(=O)O)C(=O)N[C@H](C(=O)NCC(=O)N[C@@H](CO)C(=O)N[C@@H](CC(N)=O)C(=O)N[C@H](C(=O)N1C[C@H](O)C[C@H]1C(N)=O)[C@@H](C)O)C(C)C)[C@@H](C)O)N(C)C(=O)[C@H](C)NC(=O)CN(C)C(=O)[C@H](Cc1ccccc1)NC(=O)[C@H](CO)NC(=O)[C@H](CO)NC(=O)[C@H](CCCNC(=N)N)NC(=O)[C@H](CCC(N)=O)NC(=O)[C@H](CC(C)C)NC(=O)[C@H](Cc1ccccc1)NC(=O)[C@H](Cc1c[nH]cn1)NC(=O)[C@H](C)NC(=O)[C@H](CC(C)C)NC(=O)[C@H](CCCNC(=N)N)NC(=O)[C@H](CCC(=O)O)NC(=O)[C@@H](NC(=O)[C@H](C)NC(=O)[C@@H]1CNC(=O)C[C@H](NC(=O)[C@H](CCCNC(=N)N)NC(=O)CC[C@H](NC(=O)CCCCCCCCCCCCCCCCCCC(=O)O)C(=O)O)C(=O)NCC(=O)N[C@@H]([C@@H](C)O)C(=O)N[C@@H](C)C(=O)N[C@@H]([C@@H](C)O)C(=O)N1)[C@@H](C)O [Compound 1, [19CD]-isoGlu-RD()GTAT-Dap()-ATERLAHFLQRSSF-Gly(Me)-A-Ile(Me)-LSSTEVGSNT-Hyp-NH2] ({C20 diacid-γGlu}-RDGTAT[Dap]ATERLAHFLQRSSF[Sar]A[NMeI]LSSTEVGSNT[Hyp]-NH2; lactam 2-7) | 13.6 nM | 9.3 nM

The next molecules have a lower EC50 [1] than those just listed; values first:

Row | EC50 [1] | EC50 [2] | Compound
3 | 1.23 nM | 0.268 nM | CC[C@H](C)[C@@H](C(=O)N[C@@H](CC(C)C)C(=O)N[C@@H](CO)C(=O)N[C@@H](CO)C(=O)N[C@H](C(=O)N[C@@H](CCC(=O)O)C(=O)N[C@H](C(=O)NCC(=O)N[C@@H](CO)C(=O)N[C@@H](CC(N)=O)C(=O)N[C@H](C(=O)N1C[C@H](O)C[C@H]1C(N)=O)[C@@H](C)O)C(C)C)[C@@H](C)O)N(C)C(=O)[C@H](C)NC(=O)CN(C)C(=O)[C@H](Cc1ccccc1)NC(=O)[C@@H](NC(=O)CNC(=O)[C@H](CCCNC(=N)N)NC(=O)[C@H](CCC(N)=O)NC(=O)[C@H](CC(C)C)NC(=O)[C@H](Cc1ccccc1)NC(=O)[C@H](CCCC(=O)O)NC(=O)[C@H](C)NC(=O)[C@H](CC(C)C)NC(=O)[C@H](CCCNC(=N)N)NC(=O)[C@H](CCC(=O)O)NC(=O)[C@@H](NC(=O)[C@H](C)NC(=O)[C@@H]1CCCNC(=O)C[C@H](NC(=O)[C@H](CCCNC(=N)N)NC(=O)CC[C@H](NC(=O)CCCCCCCCCCCCCCCCCCC(=O)O)C(=O)O)C(=O)N[C@@H](CCC(N)=O)C(=O)N[C@@H]([C@@H](C)O)C(=O)N[C@@H](C)C(=O)N[C@@H]([C@@H](C)O)C(=O)N1)[C@@H](C)O)[C@@H](C)O [Compound 28, [19CD]-isoGlu-RD()QTAT-Orn()-ATERLA-Aad-FLQRGTF-Gly(Me)-A-Ile(Me)-LSSTEVGSNT-Hyp-NH2] ({C20 diacid-γGlu}-RDQTAT[Orn]ATERLA[Aad]FLQRGTF[Sar]A[NMeI]LSSTEVGSNT[Hyp]-NH2; lactam 2-7)
4 | 0.227 nM | 0.066 nM | CC[C@H](C)[C@@H](C(=O)N[C@@H](CC(C)C)C(=O)N[C@@H](CO)C(=O)N[C@@H](CO)C(=O)N[C@H](C(=O)N[C@@H](CCC(=O)O)C(=O)N[C@H](C(=O)NCC(=O)N[C@@H](CO)C(=O)N[C@@H](CC(N)=O)C(=O)N[C@H](C(=O)N1C[C@H](O)C[C@H]1C(N)=O)[C@@H](C)O)C(C)C)[C@@H](C)O)N(C)C(=O)[C@H](C)NC(=O)CN(C)C(=O)[C@H](Cc1ccccc1)NC(=O)[C@H](C)NC(=O)[C@H](C)NC(=O)[C@H](CCCNC(=N)N)NC(=O)[C@H](CCC(N)=O)NC(=O)[C@H](CC(C)C)NC(=O)[C@H](Cc1ccccc1)NC(=O)[C@H](CCCC(=O)O)NC(=O)[C@H](C)NC(=O)[C@H](CC(C)C)NC(=O)[C@H](CCCNC(=N)N)NC(=O)[C@H](CCC(=O)O)NC(=O)[C@@H](NC(=O)[C@H](C)NC(=O)[C@@H]1CCCCNC(=O)C[C@H](NC(=O)[C@H](CCCNC(=N)N)NC(=O)CC[C@H](NC(=O)CCCCCCCCCCCCCCCCCCC(=O)O)C(=O)O)C(=O)NCC(=O)N[C@@H]([C@@H](C)O)C(=O)N[C@@H](C)C(=O)N[C@@H]([C@@H](C)O)C(=O)N1)[C@@H](C)O [Compound 31, [19CD]-isoGlu-RD()GTATK()ATERLA-Aad-FLQRAAF-Gly(Me)-A-Ile(Me)-LSSTEVGSNT-Hyp-NH2] ({C20 diacid-γGlu}-RDGTATKATERLA[Aad]FLQRAAF[Sar]A[NMeI]LSSTEVGSNT[Hyp]-NH2; lactam 2-7)
5 | 0.006 nM | 0.003 nM | CC[C@H](C)[C@@H](C(=O)N[C@@H](CC(C)C)C(=O)N[C@@H](CO)C(=O)N[C@@H](CO)C(=O)N[C@H](C(=O)N[C@@H](CCC(=O)O)C(=O)N[C@H](C(=O)NCC(=O)N[C@@H](CO)C(=O)N[C@@H](CC(N)=O)C(=O)N[C@H](C(=O)N1C[C@H](O)C[C@H]1C(N)=O)[C@@H](C)O)[C@@H](C)O)[C@@H](C)O)N(C)C(=O)[C@H](C)NC(=O)CN(C)C(=O)[C@H](Cc1ccccc1)NC(=O)[C@H](CO)NC(=O)[C@H](CO)NC(=O)[C@H](CCCNC(=N)N)NC(=O)[C@H](CCC(N)=O)NC(=O)[C@H](CC(C)C)NC(=O)[C@H](Cc1ccccc1)NC(=O)[C@H](CC(=O)O)NC(=O)[C@H](C)NC(=O)[C@H](CC(C)C)NC(=O)[C@H](CCCNC(=N)N)NC(=O)[C@H](CCC(N)=O)NC(=O)[C@@H](NC(=O)[C@H](C)NC(=O)[C@@H]1CCCCNC(=O)C[C@H](NC(=O)[C@H](CCCNC(=N)N)NC(=O)CC[C@H](NC(=O)CCCCCCCCCCCCCCCCCCC(=O)O)C(=O)O)C(=O)NCC(=O)N[C@@H]([C@@H](C)O)C(=O)N[C@@H](C)C(=O)N[C@@H]([C@@H](C)O)C(=O)N1)[C@@H](C)O [Compound 42, [19CD]-isoGlu-RD()GTATK()ATQRLADFLQRSSF-Gly(Me)-A-Ile(Me)-LSSTETGSNT-Hyp-NH2] ({C20 diacid-γGlu}-RDGTATKATQRLADFLQRSSF[Sar]A[NMeI]LSSTETGSNT[Hyp]-NH2; lactam 2-7)
